Results as given in patent US11236086B2, “Substituted pyrrolopyridines as inhibitors of activin receptor-like kinase” (BLUEPRINT MEDICINES CORPORATION, priority 2017, dated 2022).

What follows are compounds tested against T1, ALK2R206H (mutant ALK2, N-terminally tagged with GST) (Homo sapiens, UniProt Q04771, R206H) (assay: ALK binding assay (LANTHASCREEN TR-FRET competitive binding, displacement of Kinase Tracer 178)). Details: read-out: Binding Assay (IC50 class).
T1 construct: purchased Carna Bioscience or ThermoFisher 09-148 or PV6232
T1 sequence (Q04771 21-509 R206H): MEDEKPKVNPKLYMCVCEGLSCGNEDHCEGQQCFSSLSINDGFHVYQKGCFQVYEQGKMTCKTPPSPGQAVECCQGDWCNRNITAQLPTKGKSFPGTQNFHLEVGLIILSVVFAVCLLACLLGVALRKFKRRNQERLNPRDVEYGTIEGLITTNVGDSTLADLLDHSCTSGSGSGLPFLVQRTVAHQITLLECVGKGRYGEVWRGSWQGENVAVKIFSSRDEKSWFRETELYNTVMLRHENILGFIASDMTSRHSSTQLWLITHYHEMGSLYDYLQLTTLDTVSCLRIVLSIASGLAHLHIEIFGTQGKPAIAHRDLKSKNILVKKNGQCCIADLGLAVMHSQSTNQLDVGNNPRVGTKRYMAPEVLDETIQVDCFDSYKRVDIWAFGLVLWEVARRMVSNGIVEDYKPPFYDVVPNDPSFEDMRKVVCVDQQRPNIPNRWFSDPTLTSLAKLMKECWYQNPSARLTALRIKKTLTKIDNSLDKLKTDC
Protocol: Example 10 ALK Binding Assays
Binding assays were conducted using the LANTHASCREEN® technology (ThermoFisher Scientific). LANTHASCREEN® is a competitive binding, displacement assay where the assumed steady state occupancy of the binding site is measured using a time-resolved, fluorescence energy transfer (TR-FRET) readout between a fluorescent tracer and Europium (Eu)-tagged antibody specific for the kinase or expression tag (e.g., GST) of interest. Displacement of the tracer by a compound of the disclosure reduces, and is directly proportional to, the TR-FRET between the tracer and the antibody. Tracer was used at a concentration equal to or near to its Kd for the kinase. The Eu-tagged antibody was typically used in excess to ensure sampling of all competent protein capable of binding the tracer.
For these assays, a mutant ALK2 was used that was N-terminally tagged with GST (ALK2R206H Carna Bioscience (09-148) or ALK2R206H ThermoFisher (PV6232)); a Eu-tagged anti-GST antibody (ThermoFisher) and Kinase Tracer 178 (ThermoFisher).
In all cases, the kinase (2-5 nM) was mixed with Eu-tagged antibody (4-10 nM) mix and tracer (50 nM) were incubated with test compound titrations prepared in 100% DMSO (1% DMSO final) for 30 minutes at room temperature. All reagents and compounds were dissolved in Kinase Buffer A (ThermoFisher) to achieve the final concentration. The plates were read on a PerkinElmer EnVision® multilabel plate reader or a BioTek Synergy Neo plate reader, and the assay signal was represented as a ratio of the TR-FRET emission (λex 330 nm, λ^em […] and λ^em 665 nm). This readout was normalized to 0% and 100% inhibited control wells, plotted against inhibitor concentration, and fitted to a 4-parameter log dose response curve.
The results of this assay are shown in Table 3 in the column labelled “Binding Assay” wherein “A” represents an IC50 of less than or equal to 10 nM; “B” represents an IC50 of greater than 10 nM and less than or equal to 50 nM; and “C” represents an IC50 of greater than 50 nM. Blank values in the table indicate that the particular compound was not tested in this assay.

IC50 | SMILES
0.01 to 0.05 µM | CCOC(=O)N1CCN(c2ccnc3[nH]c(-c4nn(C)cc4C#N)cc23)CC1 [Compound 72]
≤ 0.01 µM | CCOC(=O)N1CCN(c2ccnc3[nH]c(-c4ncccn4)cc23)CC1 [Compound 9]
0.01 to 0.05 µM | CCOC(=O)N1CCN(c2ccnc3[nH]c(-c4cnc(C)nc4)cc23)CC1 [Compound 31]
≤ 0.01 µM | Cn1cc(-c2cc3c(N4CCN(C(=O)OCC5CCC5)CC4)ccnc3[nH]2)cn1 [Compound 143]
≤ 0.01 µM | O=C(OC1COC1)N1CCN(c2ccnc3[nH]c(-c4ncccn4)cc23)CC1 [Compound 73]
0.01 to 0.05 µM | CC(C)C(=O)N1CCN(c2ccnc3[nH]c(-c4cnn(C)c4)cc23)CC1 [Compound 10]
≤ 0.01 µM | COCCCOC(=O)N1CCN(c2ccnc3[nH]c(-c4cnn(C)c4)cc23)CC1 [Compound 163]
≤ 0.01 µM | CCOC(=O)N1CCN(c2ccnc3[nH]c(-c4cccc(OC)n4)cc23)CC1 [Compound 85]
≤ 0.01 µM | CCOCCOC(=O)N1CCN(c2ccnc3[nH]c(-c4cnn(C)c4)cc23)CC1 [Compound 164]
≤ 0.01 µM | Cn1cc(-c2cc3c(N4CCN(C(=O)OCC5CCCO5)CC4)ccnc3[nH]2)cn1 (stereo not drawn) [Compound 238]
≤ 0.01 µM | CCOC(=O)N1CCN(c2ccnc3[nH]c(-c4ncc(C#N)cn4)cc23)CC1 [Compound 61]
≤ 0.01 µM | CCOC(=O)N1CCN(c2ccnc3[nH]c(-c4cc(C)ccn4)cc23)CC1 [Compound 25]
0.01 to 0.05 µM | Cc1cccc(-c2cc3c(N4CCN(C(=O)C5CC5)CC4)ccnc3[nH]2)c1 [Compound 15]
≤ 0.01 µM | Cc1nc(-c2cc3c(N4CCN(C(=O)OC5COC5)CC4)ccnc3[nH]2)oc1C [Compound 158]
0.01 to 0.05 µM | Cc1cnc(-c2cc3c(N4CCN(C(=O)OC5COC5)CC4)ccnc3[nH]2)o1 [Compound 108]
≤ 0.01 µM | CCOC(=O)N1CCN(c2ccnc3[nH]c(-c4cnn(C)c4)c(CC)c23)CC1 [Compound 99]

IC50 | SMILES
≤ 0.01 µM | Cn1cc(-c2cc3c(N4CCN(C(=O)OCCC5CC5)CC4)ccnc3[nH]2)cn1 [Compound 141]
0.01 to 0.05 µM | Cn1cnc(-c2cc3c(N4CCN(C(=O)OC5COC5)CC4)ccnc3[nH]2)n1 [Compound 106]
≤ 0.01 µM | Cn1cc(-c2cc3c(N4CCN(C(=O)OCC5CCCCO5)CC4)ccnc3[nH]2)cn1 (stereo not drawn) [Compound 306]
0.01 to 0.05 µM | COCC(C)OC(=O)N1CCN(c2ccnc3[nH]c(-c4cnn(C)c4)cc23)CC1 (stereo not drawn) [Compound 165]
≤ 0.01 µM | CCc1c(-c2cc3c(N4CCN(C(=O)OC5COC5)CC4)ccnc3[nH]2)cnn1C [Compound 235]
≤ 0.01 µM | Cn1cc(-c2cc3c(N4CCN(C(=O)C5CCC5)CC4)ccnc3[nH]2)cn1 [Compound 20]
0.01 to 0.05 µM | Cn1cc(-c2cc3c(N4CCN(C(=O)CC#N)CC4)ccnc3[nH]2)cn1 [Compound 5]
≤ 0.01 µM | CCOC(=O)N1CCN(c2ccnc3[nH]c(-c4ccc(C)nc4)cc23)CC1 [Compound 27]
≤ 0.01 µM | Cc1ccc(-c2cc3c(N4CCN(C(=O)OC5COC5)CC4)ccnc3[nH]2)s1 [Compound 168]
≤ 0.01 µM | Cn1cc(-c2cc3c(N4CCN(C(=O)OCC5(C)COC5)CC4)ccnc3[nH]2)cn1 [Compound 236]
≤ 0.01 µM | CCOC(=O)N1CCN(c2ccnc3[nH]c(-c4scnc4C#N)cc23)CC1 [Compound 95]
≤ 0.01 µM | Cn1cc(-c2cc3c(N4CCN(C(=O)OCC5(C)CC5)CC4)ccnc3[nH]2)cn1 [Compound 142]
≤ 0.01 µM | Cc1nnc(-c2cc3c(N4CCN(C(=O)OC5COC5)CC4)ccnc3[nH]2)s1 [Compound 181]
> 0.05 µM | CCOCC(=O)N1CCN(c2ccnc3[nH]c(-c4cnn(C)c4)cc23)CC1 [Compound 43]
0.01 to 0.05 µM | O=C(OC1COC1)N1CCN(c2ccnc3[nH]c(-c4cnccn4)cc23)CC1 [Compound 74]

Continued, compound first:

SMILES | IC50
Cn1cc(-c2cc3c(N4CCN(C(=O)[C@@H]5CCOC5)CC4)ccnc3[nH]2)cn1 [Compound 79] | ≤ 0.01 µM
CC(C)(O)Cn1cc(-c2cc3c(N4CCN(C(=O)C5CC5)CC4)ccnc3[nH]2)cn1 [Compound 222] | ≤ 0.01 µM
O=C(C1CC1)N1CCN(c2ccnc3[nH]c(-c4cc(F)cc(F)c4)cc23)CC1 [Compound 88] | ≤ 0.01 µM
N#Cc1cccc(-c2cc3c(N4CCN(C(=O)C5CC5)CC4)ccnc3[nH]2)c1 [Compound 44] | 0.01 to 0.05 µM
Cn1cc(C#N)c(-c2cc3c(N4CCN(C(=O)OC5COC5)CC4)ccnc3[nH]2)n1 [Compound 211] | > 0.05 µM
CC(C)Oc1ccc(-c2cc3c(N4CCN(C(=O)C5CC5)CC4)ccnc3[nH]2)c(Cl)c1 [Compound 364] | 0.01 to 0.05 µM
O=C(C1CC1)N1CCN(c2ccnc3[nH]c(-c4ccc(Oc5ccccc5)cc4)cc23)CC1 [Compound 361] | 0.01 to 0.05 µM
CCOc1ccc(-c2cc3c(N4CCN(C(=O)C5CC5)CC4)ccnc3[nH]2)c(Cl)c1 [Compound 309] | > 0.05 µM
O=C(OC1COC1)N1CCN(c2ccnc3[nH]c(-c4ncc(C(F)(F)F)s4)cc23)CC1 [Compound 409] | ≤ 0.01 µM
Cn1cc(-c2cc3c(N4CCN(C(=O)OC5COC5)CC4)ccnc3[nH]2)c(C#N)n1 [Compound 209] | ≤ 0.01 µM
O=C(C1CC1)N1CCN(c2ccnc3[nH]c(-c4cccnc4)cc23)CC1 [Compound 4] | 0.01 to 0.05 µM
O=C(C1CC1)N1CCN(c2ccnc3[nH]c(-c4ccc(C(F)(F)F)cc4)cc23)CC1 [Compound 253] | 0.01 to 0.05 µM
Cc1coc(-c2cc3c(N4CCN(C(=O)OC5COC5)CC4)ccnc3[nH]2)n1 [Compound 107] | 0.01 to 0.05 µM
Cc1nc(-c2[nH]c3nccc(N4CCN(C(=O)OC5COC5)CC4)c3c2C#N)sc1C [Compound 360] | ≤ 0.01 µM
N#Cc1csc(-c2cc3c(N4CCN(C(=O)OC5COC5)CC4)ccnc3[nH]2)n1 [Compound 230] | ≤ 0.01 µM
CC(=O)Nc1ccc(-c2cc3c(N4CCN(C(=O)OC5COC5)CC4)ccnc3[nH]2)nc1 [Compound 353] | 0.01 to 0.05 µM

SMILES | IC50
Cn1cc(-c2cc3c(N4CCN(C(=O)CCC5CCCC5)CC4)ccnc3[nH]2)cn1 [Compound 206] | 0.01 to 0.05 µM
Cc1ncc(-c2[nH]c3nccc(N4CCN(C(=O)OC5COC5)CC4)c3c2C#N)o1 [Compound 217] | ≤ 0.01 µM
O=C(C1CC1)N1CCN(c2ccnc3[nH]c(-c4ccc(F)cc4F)cc23)CC1 [Compound 87] | 0.01 to 0.05 µM
CC(C)c1[nH]ncc1-c1cc2c(N3CCN(C(=O)OC4COC4)CC3)ccnc2[nH]1 [Compound 239] | > 0.05 µM
COc1cnc(-c2cc3c(N4CCN(C(=O)OC5COC5)CC4)ccnc3[nH]2)c(C#N)c1 [Compound 346] | ≤ 0.01 µM
CCC(=O)c1ccc(-c2cc3c(N4CCN(C(=O)C5CC5)CC4)ccnc3[nH]2)cc1 [Compound 184] | ≤ 0.01 µM
O=C(C1CC1)N1CCN(c2ccnc3[nH]c(-c4ccc(C5CC5)cc4)cc23)CC1 [Compound 119] | > 0.05 µM
O=C(C1CC1)N1CCN(c2ccnc3[nH]c(-c4ccc(CO)cc4)cc23)CC1 [Compound 57] | ≤ 0.01 µM
CC(C)(C)c1cnc(-c2cc3c(N4CCN(C(=O)OC5COC5)CC4)ccnc3[nH]2)s1 [Compound 373] | 0.01 to 0.05 µM
Cn1cc(-c2[nH]c3nccc(N4CCN(C(=O)OC5COC5)CC4)c3c2C2CC2)cn1 [Compound 293] | ≤ 0.01 µM
Cn1cnc(-c2cc3c(N4CCN(C(=O)O[C@H]5CC(F)(F)C5(F)F)CC4)ccnc3[nH]2)c1 [Compound 402] | ≤ 0.01 µM
COC1(c2ccc(-c3cc4c(N5CCN(C(=O)OC6COC6)CC5)ccnc4[nH]3)nc2)CCOCC1 [Compound 457] | ≤ 0.01 µM
Cc1nc(-c2cc3c(N4CCN(C(=O)O[C@H]5CCC5(F)F)CC4)ccnc3[nH]2)cn1C [Compound 327] | ≤ 0.01 µM
O=C(OC1COC1)N1CCN(c2ccnc3[nH]c(-c4csc(C(=O)N5CCCC5)n4)cc23)CC1 [Compound 448] | ≤ 0.01 µM
O=C(C1CC1)N1CCN(c2ccnc3[nH]c(-c4ccc(C(F)(F)F)cc4Cl)cc23)CC1 [Compound 393] | > 0.05 µM
Cn1cc(-c2cc3c(N4CCN(C(=O)[C@@H]5CCCO5)CC4)ccnc3[nH]2)cn1 [Compound 81] | 0.01 to 0.05 µM
